{"source": "patent US8957083B2", "about": "“Spiro-amino-imidazolone and spiro-amino-dihydro-pyrimidinone compounds as beta-secretase modulators and methods of use” (Amgen Inc., priority 2010, dated 2015)", "key": {"Aβ in lumbar CSF": {"test_system": "Aβ in lumbar CSF", "conditions": "cited from earlier work"}, "[1]": {"test_system": "pigment epithelium of the rat's eye", "conditions": "higher compound dose given for three months; cited from earlier work"}, "Aβ": {"test_system": "Aβ", "conditions": "orally available; cited from earlier work"}, "[2]": {"target": "BACE 1 (Beta Secretase enzyme) (Homo sapiens (Human), UniProt P56817)", "sequence (P56817 46-501)": "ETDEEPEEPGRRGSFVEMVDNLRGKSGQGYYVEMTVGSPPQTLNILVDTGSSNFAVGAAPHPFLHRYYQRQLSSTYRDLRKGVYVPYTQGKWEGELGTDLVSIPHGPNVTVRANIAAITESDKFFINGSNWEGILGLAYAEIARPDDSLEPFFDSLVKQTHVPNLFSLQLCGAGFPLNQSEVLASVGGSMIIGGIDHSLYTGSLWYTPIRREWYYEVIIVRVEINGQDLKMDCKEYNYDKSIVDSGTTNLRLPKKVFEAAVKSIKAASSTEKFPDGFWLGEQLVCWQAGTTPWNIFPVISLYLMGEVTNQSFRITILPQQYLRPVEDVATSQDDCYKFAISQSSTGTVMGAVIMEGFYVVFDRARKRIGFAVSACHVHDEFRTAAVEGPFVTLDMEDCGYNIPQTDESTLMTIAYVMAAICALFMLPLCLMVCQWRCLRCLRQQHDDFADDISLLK", "assay": "In vitro enzymatic BACE FRET assay", "format": "biochemical", "conditions": "enzyme 0.2 nM, FRET substrate 50 nM, pH 4.2", "procedure": "In Vitro Enzymatic BACE FRET (Fluorescence Resonance Energy Transfer) Assay (Enzyme Assay Data in the Example Table I)\nThe assay buffer used in this screen is 0.05 M acetate, pH 4.2, 10% DMSO final, 100 uM genapol (which is a nonionic detergent, below its Critical Micelle Concentration). […] This assay is effectively started by the addition of FRET substrate (50 nM) and the combination is incubated for one hour. The FRET assay is terminated with by addition of Tris buffer, which raises the pH to neutrality, and the fluorescence is determined. The FRET substrate is a peptide with commercially available fluorophore and quencher, on opposite sides of the BACE cleavage site. Proteolytic cleavage of the FRET substrate releases quenching of fluorescence (excitation […] and […])."}, "[3]": {"test_system": "Aβ40 in conditioned medium of cells expressing amyloid precursor protein", "assay": "In vitro BACE cell-based assay (HEK cell assay), Aβ40 sandwich ELISA", "conditions": "Aβ40 in supernatant after 24 h incubation", "procedure": "In Vitro BACE Cell-Based Assay\nThe cell-based assay measures inhibition or reduction of Aβ40 in conditioned medium of test compound treated cells expressing amyloid precursor protein.\nCells stably expressing Amyloid Precursor Protein (APP) were plated at a density of 40K cells/well in 96 well plates (Costar). The cells were cultivated for 24 hours at 37° C. and 5% CO2 in DMEM supplemented with 10% FBS. The test compounds were then added to cells in 10-point dose response concentrations with the starting concentration being either 100 μM or 10 μM. The compounds were diluted from stock solutions in DMSO and the final DMSO concentration of the test compounds on cells was 0.1%. After 24 h of incubation with the test compounds the supernatant conditioned media was collected and the Aβ 40 levels were determined using a sandwich ELISA. The IC50 of the compound was calculated from the percent of control or percent inhibition of Aβ 40 as a function of the concentration of the test compound.\nThe sandwich ELISA to detect Aβ 40 was performed in 96 well microtiter plates, which were pre-treated with goat anti-rabbit IgG (Pierce). The capture and detecting antibody pair that were used to detect Aβ 40 from cell supernatants were affinity purified pAb40 (Biosource) and biotinylated 6E10 (Signet Labs Inc.), respectively. The optimal concentration for the pAb40 antibody was 3 μg/ml in Superblock/TBS (Pierce) that was supplemented with 0.05% Tween 20 (Sigma).\nCellular supernatants were incubated with the capture antibody for 3 h at 4° C., followed by 3 wash steps in TBS-tween (0.05%). The detecting antibody incubation was for 2 h at 4° C., again followed by the wash steps as described previously. The final readout of the ELISA is Time-Resolved Fluorescence (counts per minute) using Delfia reagents Streptavidin-Europium and Enhancement solutions (Perkin Elmer) and the Victor 2 multilabel counter (Perkin Elmer)."}, "Cathepsin D (Cat D)": {"target": "Cathepsin D (Cat D) (Homo sapiens (Human), UniProt P07339)", "sequence (P07339 65-412, species assumed)": "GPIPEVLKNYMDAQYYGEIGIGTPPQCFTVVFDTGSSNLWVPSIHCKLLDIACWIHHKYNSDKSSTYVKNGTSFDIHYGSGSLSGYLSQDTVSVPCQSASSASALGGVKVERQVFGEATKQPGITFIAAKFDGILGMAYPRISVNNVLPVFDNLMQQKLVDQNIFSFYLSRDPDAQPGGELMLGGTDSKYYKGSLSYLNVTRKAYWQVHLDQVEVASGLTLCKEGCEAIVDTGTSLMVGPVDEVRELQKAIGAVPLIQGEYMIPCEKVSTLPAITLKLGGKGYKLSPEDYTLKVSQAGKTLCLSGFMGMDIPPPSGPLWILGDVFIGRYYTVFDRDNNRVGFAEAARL", "assay": "In vitro enzymatic Cathepsin D (Cat D) FRET assay", "format": "biochemical", "conditions": "Cat D enzyme 9 nM, FRET substrate 20 nM, pH 3.5", "procedure": "In Vitro Enzymatic Cathepsin D (Cat D) FRET (Fluorescence Resonance Energy Transfer) Assay\nRecombinant Cat D was expressed in CHO cells. The assay buffer for CathepsinD is 0.05 M citrate pH 3.5, 10% DMSO final, 5 mM CHAPS. The Cat D enzyme (9 nM) is pre-incubated for one hour with inhibitors, typically in about luL of DMSO according to a serial dilution, is added thereto. The assays are effectively started by the addition of different FRET substrates (20 nM for Cat D) and the combination is incubated for one hour. The FRET assay is terminated with by addition of Tris buffer, which raises the pH to neutrality, and the fluorescence is determined. The FRET substrate is a peptide with commercially available fluorophore and quencher, on opposite sides of the BACE cleavage site. The Cat D substrate peptide sequence is based on sequence #1 of Table 1 from Gulnik et al. FEB S Letters v413 p 379-384 1997. Proteolytic cleavage of the FRET substrate releases quenching of fluorescence (Cat D excitation 500 nm and emission 580 nm).\nWhere available, the in-vitro Cat D FRET assay data for each of the Examples, conducted by the first procedure, is provided."}, "[4]": {"conditions": "average IC50, read-out: BACE 1 FRET assay"}, "[5]": {"conditions": "class symbols, read-out: BACE 1 FRET assay (IC50 class)"}, "[6]": {"conditions": "Homo sapiens, HEK293, 24 h, class symbols, read-out: HEK cell assay (IC50 class)"}}, "note": "Like-named read-outs stand apart in the source and are kept apart here."}
{"smiles": "C[C@@]1(c2cc(-c3cncnc3)c(F)cc2F)CCSC(N)=N1", "note": "[LY2811376, (S)-4-(2,4-difluoro-5-pyrimidin-5-yl-phenyl)-4-methyl-5,6-dihydro-4H-[1,3]thiazin-2-ylamine]", "values": [{"measurement": "Aβ reductions in lumbar CSF", "setting": "Aβ in lumbar CSF; after oral dosing of 30 or 90 mg", "value": "Prominent and long-lasting Aβ reductions"}, {"measurement": "safety and tolerability", "setting": "Aβ in lumbar CSF; healthy volunteers", "value": "safe and well tolerated"}, {"measurement": "retinal toxicity finding", "setting": "[1]", "value": "ravaged the pigment epithelium of the rat's eye"}, {"measurement": "Aβ-lowering effects in animals", "setting": "Aβ", "value": "profound Aβ-lowering effects"}]}
{"smiles": "COc1ccc2c(c1)C1(N=C(N)N(C)C1=O)c1cc(NC(=O)c3ccc(Cl)cn3)ccc1O2", "note": "(stereo not shown) [Example 40, N-(2-amino-2′-methoxy-1-methyl-5-oxo-1,5-dihydrospiro[imidazole-4,9′-xanthen]-7′-yl)-5-chloropicolinamide]", "values": [{"measurement": "IC50", "setting": "[2]; [4]", "value": 6.7, "unit": "nM"}, {"measurement": "IC50", "setting": "[3]; Homo sapiens, HEK293, 24 h, average IC50, read-out: HEK cell assay", "value": 39, "unit": "nM"}, {"measurement": "IC50", "setting": "Cathepsin D (Cat D)", "value": 7400, "unit": "nM"}]}
{"smiles": "Cc1ccc(-c2cc(F)c3c(c2)[C@]2(N=C(N)N(C)C2=O)c2cc(-c4cccc(Cl)c4)ccc2O3)cc1", "note": "(stereo in doubt) [Example 33, (4R)-2-amino-7′-(3-chlorophenyl)-4′-fluoro-1-methyl-2′-(4-methylphenyl)spiro[imidazole-4,9′-xanthen]-5(1H)-one, (4S)-2-amino-7′-(3-chlorophenyl)-4′-fluoro-1-methyl-2′-(4-methylphenyl)spiro[imidazole-4,9′-xanthen]-5(1H)-one]", "values": [{"measurement": "IC50", "setting": "[2]; [4]", "value": 4.1, "unit": "nM"}, {"measurement": "IC50", "setting": "[3]; average IC50, read-out: HEK cell assay", "value": 237, "unit": "nM"}]}
{"smiles": "CN1C(=N)N[C@]2(CC1=O)c1cc(Br)ccc1Oc1cnc(Cl)cc12", "note": "[Example 20-B, (R)-7-bromo-3-chloro-2′-imino-1′-methyl-2′,3′-dihydro-1′H-spiro[chromeno[2,3-c]pyridine-5,4′-pyrimidin]-6′(5′H)-one]", "values": [{"measurement": "IC50", "setting": "[2]; [5]", "value": "> 1000", "unit": "nM"}, {"measurement": "IC50", "setting": "[3]; [6]", "value": "> 1000", "unit": "nM"}]}
{"smiles": "CN1C(=O)CC2(N=C1N)c1cc(-c3cccnc3F)ccc1Oc1c2cc(Cl)nc1F", "note": "(stereo not shown) [Example 12, 2′-amino-3-chloro-1-fluoro-7-(2-fluoropyridin-3-yl)-1′-methyl-1′H-spiro[chromeno[2,3-c]pyridine-5,4′-pyrimidin]-6′(5′H)-one]", "values": [{"measurement": "IC50", "setting": "[2]; [5]", "value": "100 to 1000", "unit": "nM"}, {"measurement": "IC50", "setting": "[3]; [6]", "value": "> 1000", "unit": "nM"}]}
